Measured values published in ChEMBL document CHEMBL3507680, “University of Dundee, Gates Library screen for HepG2 cell viability”.

Test: Human HepG2 cell viability assay in 384 well format
Type: toxicity, cell-based
Parameters: dose 125 nL, time 70.5 hour; concentration not given beside the values
Settings: HepG2 cells, read-out: Inhibition

SMILES	cytotoxicity at 70.5 h [%]
COc1ccc(CC(C)Nc2cccc(F)c2)cc1 (stereo not given)	-1.11
Cc1csc(CN(C)C(=O)C2CCC(=O)N(CCN(C)C)C2)n1 (stereo not given)	-3.99
CC(=O)NCC(=O)N1CCC2(CC1)CN(c1cccnc1)C(=O)CO2	-13.6
CC(=O)N1C[C@H](NC(=O)c2cscn2)[C@@H]2OCCC[C@@H]21	-16.1
COc1nn(C)c2c1CCCN(C(=O)c1cc[nH]n1)C2	-13
CCN1CCC2(COCc3cnc(-c4cccnc4)nc32)C1 (stereo not given)	-13.9
CS(=O)(=O)NC[C@]12COC[C@H]1CN(C(=O)C1CCCCC1)C2	-8.19
CCN1CCCn2c(nc(CNC(=O)c3ccsc3)cc2=O)C1	-15.8
Cn1cccc1C(=O)N1CC[C@H]2C[C@@H](c3ccncn3)O[C@@H]2C1	-9.87
CC1=N[C@@]2(CC[C@@H]3CN(S(=O)(=O)N(C)C)C[C@@H]32)C(=O)N1CC(C)C	-7.17
Cc1nc(COC[C@@H]2CC[C@H]3[C@H](CCN3S(C)(=O)=O)O2)cs1	-11.7
COCC(=O)N1CC[C@@H]2O[C@@H](COCc3csc(C)n3)CC[C@@H]21	4.53
CC1=N[C@@]2(CC[C@@H]3CN(S(=O)(=O)CC(C)C)C[C@@H]32)C(=O)N1CC(C)C	-5.23
Cc1ccc(CN2CCCC23CCN(S(=O)(=O)c2ccccc2)C3)o1 (stereo not given)	-7.71
CS(=O)(=O)N[C@@H]1CCO[C@]2(CCN(C(=O)c3cnccn3)C2)C1	-5.97
CS(=O)(=O)NCc1nnc2n1CCN(CC1CC1)C2	-6.05
CN1CC(=O)N(c2cccc(F)c2)CC12CCNC2 (stereo not given)	1.26
Cc1nc(C)c2c(n1)CCN(C(=O)CC1CC1)CC2	-6.2
CC(=O)NCC(=O)N1Cc2nccn2CC(Cn2cccn2)C1 (stereo not given)	-4.71
Cc1noc([C@H]2C[C@@H]3CCN(C(=O)N(C)C)C[C@H]3O2)n1	-4.62
CN1C(=O)C2(CCN(CCO)C2)c2ccccc21 (stereo not given)	-5.56
Cc1cc(CN2C[C@@H]3COC[C@]3(CNC(=O)c3ccno3)C2)no1	-4.13
Cn1ccc(C(=O)NC2CCC23CCN(C(=O)N2CCCC2)CC3)c1 (stereo not given)	-1.08
CCS(=O)(=O)N1CCC2(CCC2NC(=O)c2ccn(C)c2)CC1 (stereo not given)	-7.91
O=C(NCC1CC1)[C@H]1C[C@H]2OCC[C@H]2N(Cc2ccoc2)C1	22.9
O=C(NCC1CC1)[C@H]1C[C@@H]2CN(S(=O)(=O)Cc3ccccc3)C[C@H]1O2	18.9
O=C(c1cscn1)N1CCN2C[C@H](OCc3cccnc3)C[C@H]2C1	20

SMILES	cytotoxicity at 70.5 h [%]
CN(C)CCN1CC(C(=O)NCc2ccc(C#N)cc2)CC1=O (stereo not given)	-1.01
CCN(C)Cc1nc(-c2ccccc2NS(C)(=O)=O)oc1C	-10.5
Cc1ccccc1-n1cc(CNC(=O)CC2C(=O)NCCN2C)cn1 (stereo not given)	-1.91
O=C(c1cn(Cc2ccc(Cl)cc2)nn1)N1CCCO1	-10.9
c1ccc(-c2nc3c(c(NCc4n[nH]c5c4CCC5)n2)CCNC3)cc1	12.6
Cc1cc(NCCc2c[nH]cn2)nc(-c2cccnc2)n1	-6.06
CC(=O)c1ccc(C(=O)NCc2cccnc2N2CCCC(O)C2)s1 (stereo not given)	-14.1
CC1(CCC(=O)N2CCC(n3cc(C4(O)CCCC4)nn3)CC2)CC1	22.5
C[C@@H]1CN(C(=O)CCc2nncn2C)C[C@@]1(O)C1CCC1	-2.96
Cc1ccc(OC[C@@H]2CNC[C@H](C(=O)NCC3CCCO3)C2)cn1 (stereo not given in full)	-1.9
O=C(Cc1ccc2c(c1)OCO2)N[C@@H]1CCNC[C@H]1O	-3.71
COc1ccc(-c2noc(Cn3cnc(C)c3)n2)c(OC)c1OC	-0.844
CC(C)=CCC1(C(=O)O)CCCN(c2ccnc(N)n2)C1 (stereo not given)	17
NCc1cc(NCC(c2ccccn2)N2CCOCC2)ncn1 (stereo not given)	-6.83
CCn1cc(CN2CCC(C3CCN(C)CC3)CC2)cc1C#N	-1.33
OCC1CCCCN1Cc1nc(Cc2cccc(F)c2)no1 (stereo not given)	-12.1
CCn1cc(CN2C[C@H]3CC[C@@H]2CN(C(=O)c2cnccn2)C3)cn1	-5.14
Clc1ccc(-n2cnnc2CCCN2CCOCC2)cc1	1.11
CCn1c(C2CCCN(Cc3cc(F)ccc3OC)C2)nn(C)c1=O (stereo not given)	-9.41
O=C1CC2(CCN(c3nccc(-c4cc(C(=O)O)ccn4)n3)CC2)CN1	-8.17
CC(C)=CCN1CCN(S(=O)(=O)c2cn(C)cn2)[C@H]2CS(=O)(=O)C[C@H]21	48.8
Cc1nc(NCc2noc(C3CCCO3)n2)c2sccc2n1 (stereo not given)	31.3
Nc1ncccc1CN1CCOCC1CC(=O)NCc1ccccn1 (stereo not given)	19.3
CC(C)N(C(=O)N1CCn2cncc2C1)C(C)C	1.59
O=C(O)c1cccc(C2CCCN(S(=O)(=O)C3CC3)C2)c1 (stereo not given)	-10.8
CCOc1ccccc1-n1c(CNC)n[nH]c1=O	-2.54
Cn1c(CCNC(=O)C2CCCN(C3CCOCC3)C2)n[nH]c1=O (stereo not given)	-1.23

SMILES	cytotoxicity at 70.5 h [%]
Cc1ccccc1CN1CCC(CNC(=O)Cn2cncn2)CC1	13.8
O=C(CCCc1cn[nH]c1)N1C[C@H](CO)C[C@H](CN2CCCC2)C1	-5.76
CCC(=O)Nc1cccc(C(=O)NCCC2=CSC3=NCCCN23)c1	-7.59
Cc1nnc(CN(CCc2ccccc2)C2CCN(C)CC2)s1	-13.6
O=C1O[C@@H]2CN(Cc3ccccc3F)C[C@@H]2N1CCCN1CCOCC1	8.16
CCN1CCN(C[C@@H]2CN(c3ncccc3C(F)(F)F)C[C@@H]2CO)CC1	-5.49
Cc1ccc(SCCCNC(=O)c2cn([C@H]3CC[C@@H](N)CC3)nn2)cc1	20.6
CCc1nnc(NC(=O)c2ccc(C3CCCN3CC(C)C)s2)s1 (stereo not given)	-2.96
Cc1nc[nH]c1CN1C[C@@H]2CC[C@H](C1)N(C(=O)CCc1cccnc1)C2	-11.7
c1ccc2c(c1)CN(c1ncnc3c1CCNC3)CCO2	-5.38
CCc1ccc(CN2CCN(CCOC)[C@@H]3CS(=O)(=O)C[C@@H]32)cc1	1.39
O=c1c2sccc2ncn1Cc1cc(C2CC2)[nH]n1	-8.84
N#Cc1cccnc1N1CCCC(CO)(Cc2ccc(F)cc2)C1 (stereo not given)	-5.86
COc1ccnc(CN2CCCC(CCc3ccc(F)cc3)C2)c1OC (stereo not given)	2.04
COc1cccc(F)c1-c1nc2c([nH]1)c(C1CC1)nn2C	10.5
CN(C)C[C@@H]1CN(C2CCN(c3ccccc3Cl)CC2)C[C@@H]1CO	-14.4
CSCC(=O)N1CCC(Oc2cccc(C)c2)CC1	-7.4
COc1ccccc1-c1ncc(CN2CCCC[C@H](N(C)C)C2)s1	4.63
O=S(=O)(NCCn1cc(C2CCCNC2)nn1)c1ccc(Cl)cc1 (stereo not given)	-9.08
C=C(C)COc1ccccc1C(=O)N1CCC2(CC1)CN(C)CCN2C	-11.5
O=C(O)CCc1cc2n(n1)CCCN(C(=O)c1ccc(Cl)s1)C2	-22.4
CCCn1ncc(C(=O)N2CCN(C3CCSCC3)CC2)c1C	2.68
COC(=O)CNCC1(O)CCCN(Cc2cccc(F)c2F)C1=O (stereo not given)	-0.438
CC(C)n1cc(C(=O)N2CCC(n3cc(C(C)(C)C)nn3)CC2)cn1	-12.1
COc1c(C)cc(C(C(=O)O)N(C)Cc2ccn[nH]2)cc1C (stereo not given)	-3.26
NC(=O)N1CC[C@H](O)[C@@H]1Cc1cccnc1	-12.6
O=C(NCCc1cccs1)[C@H]1CO[C@H]2CCNC[C@H]2C1	-15

SMILES	cytotoxicity at 70.5 h [%]
COCCN1CC[C@@H]2OC[C@H](C(=O)NCc3cccs3)C[C@@H]2C1	10.1
CCC1=N[C@@]2(CC[C@@H]3CN(CC4CC4)C[C@@H]32)C(=O)N1C	-14.1
CS(=O)(=O)CC(=O)N1C[C@H]2CCC[C@@]2(COCc2ccccn2)C1	-19.8
Cc1nnc(N2CC[C@H]3C[C@@H](C(=O)NC4CCCC4)O[C@H]3C2)s1	27
O=C(NCC1CC1)[C@H]1C[C@H]2OCC[C@H]2N(CCc2ccccc2)C1	-1.31
CC(C)NC(=O)N1CCc2ncc(CN3CCOCC3)n2CC1	-1.87
Cn1ccc(C(=O)N2CCC[C@]3(C[C@@H](OCc4ccccn4)CO3)C2)n1	-12.2
Cc1cnnn1Cc1ncn2c1CN(Cc1cccs1)CCC2	4.51
c1ccc(CN2CCc3ncnc(-c4ccsc4)c3CC2)nc1	-12.4
O=C1CC(c2cccnc2)C2(CCN(S(=O)(=O)C3CC3)CC2)N1 (stereo not given)	-3.38
Cc1nc(CN2CCc3ncnc(C)c3CC2)cs1	-6.23
Cn1cc(-c2cnc(N3CCOCC3)nc2)cc1C(=O)NCCO	-6.33
CC(C)N(C)Cc1cnc2n1CCN(C(=O)NC1CCCC1)C2	-9.47
COCCN1C(=O)C[C@H]2[C@H]1CCN2Cc1cccc(C#N)c1	-19.1
O=C(CC1CC1)NCc1cn2c(n1)CN(CC1CC1)CC2	-19.5
O=C1[C@@H]2CCN(Cc3ccoc3)C[C@@H]2OCCN1c1ccccc1	-10.9
CCN1C[C@@H]2[C@@H](OC)CCN(S(=O)(=O)c3ccccc3F)[C@@H]2C1	-9.34
O=C(NCc1ccccn1)[C@H]1COC[C@H]2CN(Cc3ccoc3)C[C@H]21	-2.29
O=C([C@H]1C[C@H]2OCC[C@H]2N(Cc2cccnc2)C1)N1CCCO1	0.465
Cc1ncccc1NC(=O)[C@H]1C[C@@H]2CCN(Cc3nccs3)C[C@@H]2O1	-2.41
COc1ccc(CN2C[C@@H]3OCCN(c4ncccn4)[C@@H]3C2)cc1	-7.28
Cc1cccc(CN2C(=O)CC[C@@H]3[C@H]2CCN3Cc2ccc(C)s2)n1	-18.1
c1cc(CNCC2OCCc3cn(CC4CCOCC4)nc32)ccn1 (stereo not given)	9.22
Cn1nc(COc2cccnc2)c2c1CCN(c1cnccn1)C2	-14.9
